Assay results as given in patent US11427590B2, “Small molecule inhibitors of neutral sphingomyelinase 2 (nSMase2) for the treatment of neurodegenerative diseases” (The Johns Hopkins University, priority 2017, dated 2022).

Assays:
[1] = background statement on known inhibitor; cited from earlier work
rat astrocytes = test: Inhibition of exosome release from primary astrocytes in vitro; assay type: cell-based; conditions: 0.3-10 μM, 2 h after treatment, vs DMSO (0.02%)
Protocol: The effect of nSMase2 inhibitors on the manufacturing and release of ceramide rich exosomes from primary astrocytes was investigated as previously described. Dickens, et al. Briefly, rat astrocytes are seeded onto 6-well plates at a density of 20,000 cells/well. Twenty-four hours after seeding, astrocytes are washed with PBS and the medium changed to media without FBS. Absence of FBS mimics a trophic factor withdrawal stimulus causing the release of exosomes via a nSMase2-dependent pathway. Astrocytes are then treated with nSMase2 inhibitors at concentrations in the range 0.03-30 μM. DMSO (0.02%) is used as control. Two hours after treatment, media is collected and centrifuged at 2700 g for 15 min (4° C.). Supernatant is further centrifuged at 10,000 g for 15 min (4° C.) to remove large particles such as apoptotic bodies. Astrocyte-derived extracellular vesicles (EVs) are isolated via ultracentrifugation at 100,000 g for 3 h at 4° C. Fractions containing EV are washed twice with 5 ml PBS and the final pellet resuspended in PBS. This isolation procedure results in the isolation of EVs with a narrow size range and protein markers consistent with exosomes. Dickens, et al. The number of EVs is quantified using ZetaView Nanoparticle Tracker (Particle Metrix GmBH, Meerbusch, Germany) and the corresponding ZetaVeiw software (8.03.04.01). Nanosphere size standard 100 nm (Thermo Scientific) is used to calibrate the instrument prior to sample readings. For each sample 1 mL of the supernatant is injected into the sample-carrier cell and the particle count measured at 5 positions, with 2 cycles of reading per position. Cells are washed with PBS after every sample. Mean concentration of EVs/mL (±SEM) is calculated from 6 replicates. This screening assay is reliable with a Z′=0.75.
Referring now to FIG. 4A and FIG. 4B, the ability of compound 38 and several of its analogs to inhibit exosome release in vitro was evaluated as previously described. […] Two hours after treatment, exosomes were isolated from the media and quantified using ZetaView Nanoparticle Tracker. The mean concentration of exosomes (EVs/mL±SEM) was calculated from 6 replicate experiments (see FIG. 4). […] Baseline exosome release can be variable between experiments; as a result, inhibition is always compared relative to vehicle treatment within the same experiment. Structures of compounds with their corresponding IC50s are provided in the second row of FIG. 4.

acid sphinghomyelinase = acid sphinghomyelinase (Homo sapiens (Human), UniProt P17405); test: Inhibition of related enzyme acid sphingomyelinase; assay type: biochemical; conditions: related enzyme (phosphodiesterase)
acid sphinghomyelinase, sequence (P17405 47-631): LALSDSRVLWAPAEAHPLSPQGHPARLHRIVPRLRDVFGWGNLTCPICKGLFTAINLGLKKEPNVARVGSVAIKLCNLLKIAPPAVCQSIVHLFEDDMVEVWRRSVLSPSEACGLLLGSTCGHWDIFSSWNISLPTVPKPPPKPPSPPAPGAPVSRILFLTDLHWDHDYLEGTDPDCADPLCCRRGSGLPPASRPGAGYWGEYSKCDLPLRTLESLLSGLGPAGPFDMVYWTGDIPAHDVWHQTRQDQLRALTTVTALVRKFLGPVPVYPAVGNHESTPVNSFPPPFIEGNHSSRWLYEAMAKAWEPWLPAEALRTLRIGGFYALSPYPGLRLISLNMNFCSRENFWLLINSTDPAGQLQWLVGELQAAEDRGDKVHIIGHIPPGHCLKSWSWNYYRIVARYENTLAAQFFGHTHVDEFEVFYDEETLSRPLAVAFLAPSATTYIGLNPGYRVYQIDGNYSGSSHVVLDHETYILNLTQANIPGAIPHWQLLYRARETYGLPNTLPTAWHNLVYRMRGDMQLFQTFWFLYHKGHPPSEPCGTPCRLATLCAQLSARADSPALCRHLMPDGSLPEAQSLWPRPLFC

[2] = Pharmacokinetics, plasma and brain levels in mice
Protocol: Blood was obtained via cardiac puncture and brain tissue was dissected at 0.25, 0.5, 1, 2, 4, 6 and 8 h post dose (n=3 per gender and time point). Plasma was harvested from blood by centrifugation. Subsequently, samples were extracted from plasma and brain by a one-step protein precipitation using acetonitrile followed by vortexing for […] and centrifugation (10,000 g for 10 min) as we have described previously. Rais, et al. Once extracted, the samples were reconstituted into a mobile phase and analyzed via LC/MS/MS. Plasma concentrations (nM) as well as tissue concentrations (pmol/g) were determined and plots of mean plasma concentration vs. time were constructed for PK analysis. Non-compartmental-analysis modules in WinNonlin® (version 5.3) were used to assess pharmacokinetic parameters including maximal concentration (Cmax), time to Cmax (Tmax), area under the curve extrapolated to infinity (AUC0-∞) and brain-to-plasma (B/P) ratios.

alkaline phosphatase = test: Inhibition of related enzyme alkaline phosphatase; conditions: related enzyme (phosphomonoesterase)
Protocol: Phosphorylcholine undergoes dephosphorylation in a reaction catalyzed by alkaline phosphatase (4 U/mL) to produce choline which in turn is oxidized by choline oxidase (0.1 U/mL) to betaine and hydrogen peroxide (H2O2). Hydrogen peroxide is made to react with Amplex red (50 μM) in the presence of horseradish peroxidase (HRP, 1 U/mL) to generate the fluorescent molecule resorufin. Generation of fluorescence is monitored by measuring relative florescence units (RFU) with excitation at 530 nm and emission at 590 nm. Extent of fluorescence is directly proportional to the extent of SM hydrolysis. Substrate stock solution is prepared in 2% Triton X-100 and sonicated for 1 min. Reactions are carried out for 1 h at 37° C. in 100 mM Tris-HCl pH 7.4, 10 mM MgCl2, 0.2% Triton X-100. This assay has been optimized in 384-well format (50 μL total volume per well) under conditions where nSMase2-catalyzed hydrolysis of SM is linear with respect to nSMase2 concentration, time of incubation and SM concentration (FIGS. 3A-3C). The assay has high reliability (Z′=0.8-0.9). It is used for compound screening, IC50 determinations and mode of inhibition studies. IC50 determinations are carried out in duplicate eight-point dose response curves. A counter screen is concomitantly carried out to identify false positives resulting from inhibition of the coupling enzymes. […]

GFAP-GFP mice = test: Inhibition of exosome release in vivo after striatal IL-1β injection; conditions: mouse
Protocol: Striatal injections of IL-1β and exosome measurements are performed as previously described by our group in adult (2-3 month) male GFAP-GFP mice (Jackson Laboratories). Dickens, et al.; McCluskey, et al. Mice are anesthetized with 3% Isoflourane (Baxter) in oxygen (Airgas), and placed in a stereotaxic frame (Stoelting Co.). A small burr hole is drilled in the skull over the left striatum using a dental drill (Fine Scientific Tools). IL1β (0.1 ng/3 μl) is injected (total volume of 3 μl) at the rate 0.5 μl/min via a pulled glass capillary tip diameter <50 μm using the stereotaxic coordinates: A/P+1; M/L-2; -3 D/V. Following infusion, the capillary is held in place for 5 min to allow for solution to diffuse into the tissue. Animals are sacrificed at 2, 12 or 24 h by an overdose of anesthetic, and transcardially perfused with ice-cold saline containing heparin (20 μl per 100 ml, Sigma). Blood is rapidly isolated and flash frozen. […]
GFAP-GFP mice that release green EVs from astrocytes into the systemic circulation were used so that exosome release from astrocytes in plasma can be followed. […] The concentration of immunoprecipitated GFP+ EVs is quantified using ZetaView nanoparticle tracking analysis (Particle Metrix) as described in the cell-based exosome release. […]

[3] = tested on: panel of 44 selected targets
[4] = Phase I metabolic stability in human liver microsomes; assay type: in vitro ADME; conditions: 37° C.
Protocol: (§1) Phase I metabolic stability in both mouse and human liver microsomes was performed as described previously. Rais et al. Briefly, compounds are spiked in liver microsomes (mouse, human) and incubated in an orbital shaker at 37° C. […] Compound disappearance is monitored over time using LC/MS/MS.

[5] = Phase I metabolic stability in mouse liver microsomes; assay type: in vitro ADME; conditions: 37° C.
Protocol: as §1

Row | Mouse Liver Microsome (+) NADPH % Remaining at 60 min [5] | Compound | solubility [1] | exosome release from astrocytes (rat astrocytes) | inhibition of acid sphinghomyelinase (acid sphinghomyelinase) | systemic exposure ([2]; 10 mg/kg i.p.) | brain exposure ([2]; 10 mg/kg peroral) | plasma exposure ([2]; 10 mg/kg peroral) | inhibition of alkaline phosphatase (alkaline phosphatase) | exosomes in plasma after striatal IL-1β injection (GFAP-GFP mice) | inhibition of positive hits ([3]; 10 μM, all positive hits) | segregation in potency between off targets and nSMase2 ([3]; off targets vs nSMase2) | Human Liver Microsome (+) NADPH Remaining at 60 min [4]
1 |  | O=C(/C=C/c1ccc(/C=C/C(=O)Nc2ccc(C3=NCCN3)cc2)cc1)Nc1ccc(C2=NCCN2)cc1 [GW4869] | poor solubility |  |  |  |  |  |  |  |  |  | 
2 |  | COc1ccc(-c2c(C)nc3c(N4CC[C@@H](NC(=O)Oc5ccccc5)C4)cc(C)nn23)cc1OC [compound 38, Phenyl (R)-(1-(3-(3,4-dimethoxyphenyl)-2,6-dimethylimidazo[1,2-b]pyridazin-8-yl)pyrrolidin-3-yl) carbamate] |  | decreased the number of exosomes released from astrocytes in a dose dependent manner | not inhibiting | high systemic exposures | high brain exposures | high plasma exposures | not inhibiting | significantly reduced the increased exosomes | less than 100% | ≥ 20 fold | 103 ± 14%
3 | 53 ± 6% | COc1ccc(-c2c(-c3ccc(C)cc3)nc3c(N4CC[C@@H](NC(C)=O)C4)cc(C)nn23)cc1OC [compound 62, (R)—N-(1-(3-(3,4-dimethoxyphenyl)-6-methyl-2-(p-tolyl)imidazo[1,2-b]pyridazin-8-yl)pyrrolidin-3-yl)acetamide] |  | decreased the number of exosomes released from astrocytes in a dose dependent manner |  |  |  |  |  |  |  |  | 28 ± 5%
